The values below come from publication PMC3284447, “In vivo antinociception of potent mu opioid agonist tetrapeptide analogues and comparison with a compact opioid agonist - neurokinin 1 receptor antagonist chimera” (Molecular Brain, 2012).

For one test, the system named is male CD1 mice. Put plainly: radiant heat tail-flick test after s.c. administration. Format: in vivo, mouse. As for the experimental part:
(§1) In order to compare the antinociceptive effect induced by the examined drugs, morphine was used as a standard reference.
In order to determine the duration of drug activity, s.c. drug administration into male CD1 mice (27-33 g; Charles River Laboratories, Sulzfeld, Germany) was performed. In addition to a thermal nociceptive stimulus, the alternative light beam-based tail-flick assay was performed using an UB 37360 Ugo Basile analgesiometer (Ugo Basile s.r.l., Varese, Italy). The reaction time required by the mouse to remove its tail due to the radiant heat was measured and defined as the tail-flick latency. A cut-off time of 10 s was used in order to minimize tissue damage. Tail-flick latencies were measured before (baseline) and after drug s.c. administration (30 min, 1 h, 2 h, 3 h, 4 h, 5 h, 6 h and 7 h), the antinociceptive effect was scored as a percentage of the maximal possible effect (% MPE), according to formula presented above. Drugs were dissolved in sterile physiological saline (0.9%) and were administered s.c. in a volume of 10 μl per 1 g body weight. The animal procedures were approved by the Austrian Ethical Committee on Animal Care and Use in line with international laws and policies.
(§2) Data are presented as means ± standard errors of the mean (SEM). All of the calculations and statistical analysis were performed using Prism 5.0 (Graph Pad Software, San Diego, CA, USA). The nociceptive scores were analyzed using a two-way Anova with Bonferroni's post hoc test. The p value (the value of probability) as well as inferential statistics - F test, which include information about the obtained magnitude or value of the test statistic and degrees of freedom, are represented.
In general terms: In hot-plate and tail-flick tests a longer latency is read as antinociception.

For test [1], the system named is male C57Bl6 mice. Put plainly: hot water tail-flick test, tolerance after daily i.v. administration for 5 days. Format: in vivo, mouse. The conditions noted are these: for tolerance development after repetitive administration: daily for 5 days, i.v. (morphine i.p.), measured on day 5. As for the experimental part:
(§3) Nociceptive responses to thermally-induced pain were assessed by the hot water tail-flick test using male C57Bl6 mice. Animals (weighing 25-28 g) were maintained on a normal light-dark cycle and testing occurred during the light cycle. Mice were injected intravenously (i.v.) with the examined drug, dissolved in saline, at different doses. For the verification of drug-induced antinociceptive tolerance, the investigated compounds were administered (i.v.) once per day for 5 days (2 and 4 mg/kg for SBCHM01 and 4 mg/kg for both AN81 and BVD03) and the analgesic effect was measured on the first and the fifth day of the experiment. In each case (both acute and chronic treatment) the effect was measured over a minimum time period of 120 minutes. The antinociceptive effect was measured in triplicate at the following time points post-injection: 5, 15, 30, 60, 120 min (and 180 min for SBCHM01; due to the strong and long-lasting analgesic effect produced by AN81 (Figure 2C), there was no possibility to prolong the experiment, which - if prolonged - could in consequence cause major damage to the animal's tail, thus giving spurious nociceptive responses). Responses to thermal hot stimulus were assessed by the latency with which the mouse removed its tail from 55°C water. A cut-off time of 10 s was used in order to prevent tissue damage.
as §1, §2

In test [2] the target is MOR. More on the design: method as in PMID 21413804. The conditions noted are these: [^3H]DAMGO, rat brain membrane; cited from earlier work.
In test [3] the test system is DOR. Also on record: method as in PMID 21413804. Particulars: MVD tissue bioassay; means of 3-6 experiments ± SEM; cited from earlier work.
For a further test, the target named is KOR. Particulars: cited from earlier work. From the text: Table 1 In vitro functional activities and affinities of opioid- and opioid-NK1 ligands | column: KOR Ki (nM)^e, f
The test system of test [4] is male C57Bl6 mice. Put plainly: hot water tail-flick test, acute antinociception after i.v. administration. The test is classed as in vivo, mouse. Particulars: for analgesic effect compared with morphine: morphine 4 mg/kg i.p. As for the experimental part:
as §3, §1, §2

The subject of the next test is MOR/DOR. The conditions noted are these: cited from earlier work. From the text: The structure differs from BVD03 only in the amide nitrogen N-methyl group and side chain of the second residue in the peptide sequence (Figure 1). When an activity comparison is made between the two ...
Test [5] relates to MOR. More on the design: method as in PMID 21413804. The conditions noted are these: GPI tissue bioassay; means of 3-6 experiments ± SEM; cited from earlier work.
The target of test [6] is DOR. More on the design: method as in PMID 21413804. The conditions noted are these: [^3H]DSLET, rat brain membrane; cited from earlier work.
Test [7] has as its target DOR. The conditions noted are these: [^3H]diprenorphine, HEK293 cells stably expressing DOR; cited from earlier work. From the text: Table 1 In vitro functional activities and affinities of opioid- and opioid-NK1 ligands | column: DOR Ki (nM)^e, f || The potent antinociceptive effects of the investigated structures after peripheral administration indicate that all four peptidic compounds are able to cross the BBB. […] The observed effects are in agreement with earlier in vitro binding data obtained for these peptides (BVD02 ...

The test system of test [8] is MOR. The conditions noted are these: forskolin-stimulated cAMP accumulation, agonist; cited from earlier work. From the text: Table 1 In vitro functional activities and affinities of opioid- and opioid-NK1 ligands | column: MOR EC50 (nM)^c, d || The potent antinociceptive effects of the investigated structures after peripheral administration indicate that all four peptidic compounds are able to cross the BBB. […] The observed effects are in agreement with earlier in vitro binding data obtained for these peptides (BVD02 ...
(Cyclic AMP is a second messenger, typically raised through Gs and lowered through Gi signalling.)

Test [9] addresses MOR. The conditions noted are these: [^3H]diprenorphine, HEK293 cells stably expressing MOR; cited from earlier work. From the text:
Table 1 In vitro functional activities and affinities of opioid- and opioid-NK1 ligands | column: MOR Ki (nM)^e, f || The potent antinociceptive effects of the investigated structures after peripheral administration indicate that all four peptidic compounds are able to cross the BBB. […] The observed effects are in agreement with earlier in vitro binding data obtained for these peptides (BVD02 ...

Test [10] has as its system DOR. The conditions noted are these: forskolin-stimulated cAMP accumulation, agonist; cited from earlier work. The source says: Table 1 In vitro functional activities and affinities of opioid- and opioid-NK1 ligands | column: DOR EC50 (nM)^c, d || The potent antinociceptive effects of the investigated structures after peripheral administration indicate that all four peptidic compounds are able to cross the BBB. […] The observed effects are in agreement with earlier in vitro binding data obtained for these peptides (BVD02 ...

Where [11] appears, read: i.v., 1 mg/kg, 30 min, ± SEM of 6-10 mice, p > 0.05 vs morphine.

Entries after “also recorded” stand apart in the source; their conditions may differ. Where two headings read alike, the source gives them in different places. Square brackets hold non-standard residues; d marks the D form. Dmt = Cc1cc(O)cc(C)c1C[C@H](N)C(=O)O; dNMeA = CN[C@H](C)C(=O)O; Sar = CNCC(=O)O

Regarding `CN1CC[C@]23c4c5ccc(O)c4O[C@H]2[C@@H](O)C=C[C@H]3[C@H]1C5` [morphine, reference compound], the duration of analgesia result in the test on male CD1 mice (morphine s.c., more elevated doses relative to AN81) is “activity drops rapidly over time; also recorded: lost almost all activity over a time period of 2 hours”. Also, in the test with male C57Bl6 mice [1], the “tolerance development after repetitive administration” value is listed as “mice had developed opioid-induced tolerance”. Besides, the “potency at 180 min” value with male C57Bl6 mice [1] (day 1, SBCHM01 2 mg/kg i.v., morphine 4 mg/kg i.p.) is “decrease in potency is clearly visible”.
As usually defined, the Ki is a measure of affinity in units of concentration, obtained from inhibition or displacement. The EC50 is the concentration that produces a half-maximal response. For H-Dmt-D-Arg-Aba-Gly-NH2 [AN81], the Ki is 0.00015 ± 2e-05 µM on MOR [2]; 0.118 ± 0.012 µM on KOR ([^3H]U69,593, guinea pig brain membrane); 0.0006 ± 7e-05 µM on DOR [6]. The values for the 50% effective concentration (EC50) with DOR [3] and in the test on MOR [5] were 0.00042 ± 2e-05 µM and 0.00032 ± 4e-05 µM, respectively. In addition, in the test with male C57Bl6 mice [4] (compared among the peptides of the study), the “overall analgesic effect after systemic administration” value is “strongest analgesic effect”. In addition, the “analgesic effect compared with morphine” value in the test on male C57Bl6 mice [4] (i.v., 0.1 mg/kg, 15 min and 120 min) is given as “significantly lower analgesic effect”; in the test with male C57Bl6 mice [4] (i.v., 4, 1 and 0.5 mg/kg, all time points, p > 0.05), “no difference in the analgesic effect”. The “%MPE” value in the test with male C57Bl6 mice [4] (i.v., 0.1 mg/kg, 2 h, ± SEM of 6-10 mice, p < 0.05 vs morphine) is 61.2 ± 6.45%; in the test with male C57Bl6 mice [4] (setting [11]), 95 ± 2.89%; with male C57Bl6 mice [4] (i.v., 4 mg/kg, 30 min, 6-10 mice, p > 0.05 vs morphine) it was 100%; in the test on male CD1 mice (s.c., 1 mg/kg, 7 h, ± SEM of 5-6 mice) it was 38.4 ± 7.8%; in the test on male C57Bl6 mice [1] (day 5, i.v., 4 mg/kg daily, last time point (120 min), ± SEM of 7-10 animals, p < 0.001), 15.83% ± 4.40. Further, the duration of antinociception entry in the test with male CD1 mice (abstract: very low doses (0.1 mg/kg)) is “up to 7 hours”. The “time of peak antinociception” value with male CD1 mice (s.c., 0.2, 0.5 and 1 mg/kg, 5-6 mice) stood at 1 h. The duration of analgesia entry with male CD1 mice (s.c., 1, 0.5 and 0.2 mg/kg) is “up to 7 hours”. Moreover, the “in vitro agonist profile” value with MOR/DOR is “superagonist profile; also recorded: full MOR/DOR agonist with subnanomolar affinity and tissue bioactivity”. The “tolerance compared to morphine” value in the test on male C57Bl6 mice [1] (5 days repetitive administration) was “markedly lower”. The “tolerance development after repetitive administration” value in the test with male C57Bl6 mice [1] was “leads to the development of tolerance; also recorded: partial preservation of analgesia observed after repetitive administration; also recorded: appeared to still induce the development of tolerance”.
For the molecule “H-[Dmt][dNMeA]F[Sar]-NH2 [BVD02, opioid tetrapeptide, "ring opened" analogue]”, the inhibition constant Ki at DOR [7] was 0.13 ± 0.005 µM; on KOR ([^3H]diprenorphine, HEK293 cells stably expressing KOR), over 1000 µM; on MOR [9] it was 0.06 ± 0.003 µM. In addition, the “%MPE” value in the test on male C57Bl6 mice [4] (i.v., 0.5 mg/kg, 60 min, ± SEM of 6-10 mice, p > 0.05 vs morphine) is 56.77 ± 13.57%; in the test with male C57Bl6 mice [4] (setting [11]), 74.77 ± 13.63%; in the test with male C57Bl6 mice [4] (i.v., 5 mg/kg, 15 min post-injection, 6-10 mice, unchanged within the next hour), 100%; in the test on male C57Bl6 mice [4] (i.v., 5 mg/kg, 2 h, ± SEM of 6-10 mice, p > 0.05), 96 ± 4%. Also, in the test with male C57Bl6 mice [4] (i.v., 1 and 0.5 mg/kg, 120 min, p < 0.001 vs morphine), the “antinociceptive activity at 120 min compared to morphine” value was “dramatic reduction of activity”. Also, the values for the half-maximal effective concentration (EC50) in the test with MOR [8] and in the test on DOR [10] were 79 ± 6.5 pM and 4.4 ± 0.5 µM, respectively.
